According to ChEMBL document CHEMBL5325477, “Biological Function of Pin1 in Vivo and Its Inhibitors for Preclinical Study: Early Development, Current Strategies, and Future Directions” (J Med Chem, 2023):
pIC50, pKi: −log10 of the molar value. Blank lines part the entries; values can stand above or below the compound they belong to. *1 amine or outer side, *2 acyl side, *3 side chain or, on linkers, in order; H or OH if unused. Where a SMILES comes first, the peptide text is derived from it. [ ]: non-standard residue; d: D form. The star is where a group is joined. Biotin = O=C1N[C@H]2[C@H](CS[C@H]2CCCCC(=O)*)N1; X2 = CC(OP(=O)(O)O)[C@H](N[*:1])C(=O)[*:2]; X3 = O=C([C@H](Cc1cc2ccccc2s1)N[*:1])[*:2]; 1Nal = N[C@@H](Cc1cccc2ccccc12)C(=O)O; 2Nal = N[C@@H](Cc1ccc2ccccc2c1)C(=O)O; Bta = N[C@@H](Cc1csc2ccccc12)C(=O)O; Cha = N[C@@H](CC1CCCCC1)C(=O)O; Pip = O=C(O)[C@@H]1CCCCN1; Abu = CC[C@H](N)C(=O)O

Key:
[1] = biological target: T1, Peptidyl-prolyl cis-trans isomerase NIMA-interacting 1 (Homo sapiens, UniProt Q13526); assay: Inhibition of human Pin1 assessed as inhibition constant
T1 sequence (Q13526 whole entry): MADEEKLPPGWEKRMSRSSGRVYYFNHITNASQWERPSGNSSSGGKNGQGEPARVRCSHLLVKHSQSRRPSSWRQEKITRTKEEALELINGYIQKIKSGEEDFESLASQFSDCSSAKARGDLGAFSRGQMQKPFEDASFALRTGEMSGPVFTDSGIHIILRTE

[2] = biological target: T1, Peptidyl-prolyl cis-trans isomerase NIMA-interacting 1; assay: Inhibition of Gst-tagged human Pin1 by Western blot analysis
[3] = biological target: T1, Peptidyl-prolyl cis-trans isomerase NIMA-interacting 1; assay: Inhibition of Gst-tagged human Pin1by FP assay
[4] = biological target: T1, Peptidyl-prolyl cis-trans isomerase NIMA-interacting 1; assay: Inhibition of Gst-tagged human Pin1 assessed as inhibition constant by Western blot analysis
[5] = biological target: T1, Peptidyl-prolyl cis-trans isomerase NIMA-interacting 1; assay: Inhibition of recombinant human Pin1 assessed as inactivation constant measured upto 180 mins
MDA-MB-231 [6] = assay: Anticancer activity against human MDA-MB-231 cells assessed as cell growth inhibition measured after 24 hrs by tryphan blue staining based assay; type: functional; conditions: MDA-MB-231, 24 h
[7] = biological target: T1, Peptidyl-prolyl cis-trans isomerase NIMA-interacting 1; assay: Inhibition of Pin1 (unknown origin)
[8] = biological target: T1, Peptidyl-prolyl cis-trans isomerase NIMA-interacting 1; assay: Inhibition of Pin1 (unknown origin) using Suc-Ala-Glu-Pro-Phe-pNA as substrate by spectrofluorometry assay
MDA-MB-231 [9] = assay: Anticancer activity against human MDA-MB-231 cells assessed as cell growth inhibition measured after 48 hrs by cell count reagent SF based assay; type: functional; conditions: MDA-MB-231, 48 h
MEF = assay: Anticancer activity against mouse MEF cells assessed as cell growth inhibition measured after 48 hrs by MTT assay; type: functional, cell-based
[10] = biological target: T1, Peptidyl-prolyl cis-trans isomerase NIMA-interacting 1; assay: Inhibition of Pin1 (unknown origin) assessed as inhibition constant

pIC50 [2]: 6.68
SMILES: CC(=O)N[C@@H](CCCCNC(=O)CCCC[C@@H]1SC[C@@H]2NC(=O)N[C@@H]21)C(=O)N[C@@H](C)C(=O)N[C@@H](C)C(=O)N[C@@H](Cc1cc2ccccc2s1)C(=O)N[C@H](C(=O)N1CCCC[C@H]1C(=O)N[C@@H](Cc1ccc2ccccc2c1)C(=O)N[C@@H](CCC(N)=O)C(N)=O)C(C)OP(=O)(O)O (stereo partly drawn) (Ac-K(Biotin)AA[X3][X2][Pip][2Nal]Q-NH2)

pIC50 [2]: 4.30
SMILES: CC(=O)N[C@@H](CCCCNC(=O)CCCC[C@@H]1SC[C@@H]2NC(=O)N[C@@H]21)C(=O)N[C@@H](C)C(=O)N[C@@H](C)C(=O)N[C@@H](Cc1cc2ccccc2s1)C(=O)N[C@H](C(=O)N1CCC[C@H]1C(=O)N[C@@H](CC1CCCCC1)C(=O)N[C@@H](CCC(N)=O)C(N)=O)C(C)OP(=O)(O)O (stereo partly drawn) (Ac-K(Biotin)AA[X3][X2]P[Cha]Q-NH2)

pKi [1]: 5.85
SMILES: COc1ccc(F)cc1-c1cc(NC(=O)C[C@@H]2SC[C@H]3NC(=O)N[C@@H]23)c(O)c(C(=O)C2CCc3ccccc32)c1 (stereo partly drawn)

pKi [4]: 7.74
SMILES: CC[C@H](NC(C)=O)C(=O)N[C@H](C(=O)N1CCCC[C@H]1C(=O)N[C@@H](Cc1cccc2ccccc12)C(=O)N[C@@H](CCC(N)=O)C(N)=O)C(C)OP(=O)(O)O (stereo partly drawn) (Ac-[Abu][X2][Pip][1Nal]Q-NH2)

Kinact [5]: 4.66 10^-1/min | pIC50 (MDA-MB-231 [6]): 5.92
SMILES: CC(C)(C)c1ccc(S(=O)(=O)/N=C2\C=C(SCC(=O)O)C(=O)c3ccccc32)cc1

pKi [4]: 7.70
SMILES: C[C@H](N)C(=O)N[C@@H](C(=O)N1CCCC[C@H]1C(=O)N[C@@H](Cc1ccc2ccccc2c1)C(=O)N[C@@H](CCC(N)=O)C(N)=O)[C@H](C)OP(=O)(O)O

pIC50 [7]: 6.00
SMILES: C[C@H](N)C(=O)N[C@@H](C)C(=O)N[C@H](COP(=O)(O)O)C(=O)N1CCC[C@H]1C(=O)N[C@@H](CCCNC(=N)N)C(=O)Nc1ccc([N+](=O)[O-])cc1

pKi [4]: 6.74
SMILES: CC(=O)N[C@@H](CCCCNC(=O)CCCC[C@@H]1SC[C@@H]2NC(=O)N[C@@H]21)C(=O)N[C@@H](C)C(=O)N[C@@H](C)C(=O)N[C@@H](Cc1csc2ccccc12)C(=O)N[C@H](C(=O)N1CCCC[C@H]1C(=O)N[C@@H](Cc1ccc2ccccc2c1)C(=O)N[C@@H](CCC(N)=O)C(N)=O)C(C)OP(=O)(O)O (stereo partly drawn) (Ac-K(Biotin)AA[Bta][X2][Pip][2Nal]Q-NH2)

pKi [4]: 6.29
SMILES: C[C@H](N)C(=O)N[C@H](C(=O)N1CCCC[C@H]1C(=O)N[C@@H](Cc1ccc2ccccc2c1)C(=O)N[C@@H](CCC(N)=O)C(N)=O)[C@@H](C)OP(=O)(O)O

pKi [1]: 5.31
SMILES: COc1ccc(F)cc1-c1cc(N)c(O)c(C(=O)C2CCc3ccccc32)c1 (stereo not drawn)

pKi [10]: 5.76
SMILES: CC(=O)N[C@@H](Cc1ccccc1)C(=O)N[C@@H](Cc1ccccc1)C(=O)N[C@@H](/C=C1\CCC[C@@H]1C(=O)N[C@@H](CCCNC(=N)N)C(N)=O)COP(=O)(O)O

pKi [4]: 8.92
SMILES: CC(=O)N[C@@H](CCCCNC(=O)CCCC[C@@H]1SC[C@@H]2NC(=O)N[C@@H]21)C(=O)N[C@@H](C)C(=O)N[C@@H](C)C(=O)N[C@@H](Cc1csc2ccccc12)C(=O)N[C@H](C(=O)N1CCCC[C@H]1C(=O)N[C@@H](Cc1cccc2ccccc12)C(=O)N[C@@H](CCC(N)=O)C(N)=O)C(C)OP(=O)(O)O (stereo partly drawn) (Ac-K(Biotin)AA[Bta][X2][Pip][1Nal]Q-NH2)

Second part, the compound before the results:

SMILES: COc1ccc(F)cc1C(=O)C1CCc2ccccc21 (stereo not drawn)
pKi [1]: 5.06

SMILES: CC1=C(/C=C/C(C)=C/C=C/C(C)=C/C(=O)O)C(C)(C)CCC1 [TRETINOIN]
pIC50 [3]: 6.24

SMILES: O=C(c1cc(-c2cc(F)cc([N+](=O)[O-])c2O)ccc1O)C1CCc2ccccc21 (stereo not drawn)
pKi [1]: 6.30

SMILES: Nc1nc(OCc2ccc(CNC(=O)C(F)(F)F)cc2)c2nc[nH]c2n1
pIC50 [7]: 7.14

SMILES: CCOC(=O)C([Se]c1ccccc1)([Se]c1ccccc1)C(=O)OCC
pIC50 [8]: 6.36 | pIC50 (MDA-MB-231 [9]): 4.96

SMILES: Nc1cc(F)cc(-c2ccc(O)c(C(=O)C3CCc4ccccc43)c2)c1O (stereo not drawn)
pKi [1]: 6.40

SMILES: COc1ccc(F)cc1C(=O)[C@]1(C)CCc2ccccc21
pKi [1]: 5.25

SMILES: CCOC(=O)CN1C(=O)c2ccc3c4c(ccc(c24)C1=O)C(=O)N(CC(=O)OCC)C3=O
pIC50 (MEF): 6.00

SMILES: COc1ccc(F)cc1C(=O)C1(C)CCc2ccccc21 (racemic)
pKi [1]: 4.72
